In brackets after ≈: the same amount, converted by molar mass. Several values for one entry are separate records, joined by “and”; a condition that tells them apart may be missing. Identical values can stand only once. Like-named read-outs stand apart in the source and are kept apart here. Starred links: 1 amine or outer side, 2 acyl side, 3 side chain; linkers in the order of their positions; H or OH if unused. Positions of bridges follow the written chain, without caps; N, C: chain ends. Non-standard residues stand in square brackets, D forms with d. Residues, ends and D or L forms follow the SMILES beside them. *: point of attachment. hTyr(3S-OH,4S-OH,3'-OSO3H) = N[C@H](C(=O)O)[C@H](O)[C@@H](O)c1ccc(O)c(OS(=O)(=O)O)c1; Orn(4R-OH,5R-OH) = O=C([C@H](C[C@@H](O)[C@@H](O)N[*:3])N[*:1])[*:2]; Pro(3S-OH,4S-Me) = C[C@H]1CN[C@H](C(=O)O)[C@H]1O; X1 = CCCCCOc1ccc(-c2cc(-c3ccc(C(=O)*)cc3)no2)cc1; Gln(3R-OH) = NC(=O)C[C@@H](O)[C@H](N)C(=O)O; Hyp = O=C(O)[C@@H]1C[C@@H](O)CN1
Assays:
Candida krusei [1] = test: Antifungal broth microdilution (Example 13); type: cell-based
Aspergillus spp. = test: Antifungal broth microdilution (Example 13); type: cell-based, A. niger, A. terreus, A. fumigatus, A. flavus
[2] = system: C. parapsilosis ATCC 22019; test: Antifungal broth microdilution (Example 13), QC organism; type: cell-based, Candida parapsilosis; details: comparators, single value
Candida krusei [3] = details: C. krusei ATCC 6258, CLSI established QC range, cited from earlier work
[4] = system: C. parapsilosis ATCC 22019; details: cited from earlier work
E. coli ATCC 25922 = test: MIC control strain; details: QC organism, Example 13
S. aureus ATCC 29213 [5] = test: MIC control strain; details: QC organism, Example 13
S. aureus ATCC 29213 [6] = details: control strain ATCC 29213; cited from earlier work
Enterobacteriaceae [7] = test: Broth microdilution MIC (Example 11); type: cell-based, E. coli, K. pneumoniae, Enterobacter cloacae
[8] = system: P. aeruginosa and A. baumannii; test: Broth microdilution MIC (Example 11); type: cell-based, Pseudomonas aeruginosa, Acinetobacter baumannii
S. aureus [9] = test: Broth microdilution MIC (Example 11); type: cell-based, Staphylococcus aureus
Enterococcus spp. = test: Broth microdilution MIC (Example 11); type: cell-based, E. faecalis, E. faecium; details: Lev^R Cip^R Ery^R
Enterobacteriaceae [10] = details: E. coli MMX 102 (ATCC 25922); CLSI QC ranges shown in parenthesis; cited from earlier work
[11] = system: P. aeruginosa and A. baumannii; details: P. aeruginosa MMX 103 (ATCC 27853); CLSI QC ranges shown in parenthesis; cited from earlier work
S. aureus [12] = details: S. aureus MMX 101 (ATCC 29213); cited from earlier work

For CC[C@H](C)C[C@H](C)CCCCCCCCC(=O)N[C@H]1C[C@@H](O)[C@@H](NCCN)NC(=O)[C@@H]2[C@@H](O)CCN2C(=O)[C@H]([C@H](O)CCN)NC(=O)[C@H]([C@H](O)[C@@H](O)c2ccc(O)cc2)NC(=O)[C@@H]2C[C@@H](O)CN2C(=O)[C@H]([C@@H](C)O)NC1=O [Caspofungin], the MIC 24 hr (Candida krusei [1]; C. krusei ATCC 6258, 24 hr, comparators, single value) was 0.25 µg/mL (≈ 0.229 µM), the MIC 48 hr (Candida krusei [1]; C. krusei ATCC 6258, 48 hr, comparators, single value) was 0.25 µg/mL (≈ 0.229 µM) and the “MIC 24 hr (MEC)” value (Aspergillus spp.; A. flavus ATCC 204304, 24 hr, MEC) was 0.12 (MEC). For the same compound, the “MIC 48 hr (MEC)” value (Aspergillus spp.; A. flavus ATCC 204304, 48 hr, MEC) was 0.06 (MEC), the “MIC 24 hr (MEC)” value (Aspergillus spp.; A. fumigatus ATCC MYA-3626, 24 hr, MEC) was 0.06 (MEC) and the “MIC 48 hr (MEC)” value (Aspergillus spp.; A. fumigatus ATCC MYA-3626, 48 hr, MEC) was 0.06 (MEC). The MIC 24 hr [2] was 0.25 µg/mL (≈ 0.229 µM), the MIC 48 hr [2] was 0.5 µg/mL (≈ 0.457 µM) and the “QC Range 24 hr” value (Candida krusei [3]) was 0.12-1. The “QC Range 48 hr” value (Candida krusei [3]) was 0.25-2, the “QC Range 24 hr” value ([4]; C. parapsilosis ATCC 22019, CLSI established QC range, 24 hr) was 0.25-1 and the “QC Range 48 hr” value ([4]; C. parapsilosis ATCC 22019, CLSI established QC range, 48 hr) was 0.5-4. The “MIC 24 hr” value (E. coli ATCC 25922) was >64 and the “MIC 24 hr” value (S. aureus ATCC 29213 [5]) was >64.
In the case of CC[C@H]1OC(=O)[C@H](C)[C@@H](O[C@H]2C[C@@](C)(OC)[C@@H](O)[C@H](C)O2)[C@H](C)[C@@H](O[C@@H]2O[C@H](C)C[C@H](N(C)C)[C@H]2O)[C@](C)(OC)C[C@@H](C)C(=O)[C@H](C)[C@@H](O)[C@]1(C)O [Clarithromycin, reference compound], the “Expected MIC: goal (acceptable range)” value (S. aureus ATCC 29213 [6]) is listed as 0.25 (0.12-0.5) mcg/mL.
For CCCCCOc1ccc(-c2cc(-c3ccc(C(=O)N[C@H]4C[C@@H](O)[C@@H](O)NC(=O)[C@@H]5[C@@H](O)[C@@H](C)CN5C(=O)[C@H]([C@H](O)CC(N)=O)NC(=O)[C@H]([C@H](O)[C@@H](O)c5ccc(O)c(OS(=O)(=O)O)c5)NC(=O)[C@@H]5C[C@@H](O)CN5C(=O)[C@H]([C@@H](C)O)NC4=O)cc3)no2)cc1 [Micafungin] (X1-[Orn(4R-OH,5R-OH)]T[Hyp][hTyr(3S-OH,4S-OH,3'-OSO3H)][Gln(3R-OH)][Pro(3S-OH,4S-Me)]; lactam 1-C), the MIC 24 hr (Candida krusei [1]) was 0.5 µg/mL (≈ 0.394 µM), the MIC 48 hr (Candida krusei [1]) was 0.5 µg/mL (≈ 0.394 µM) and the “MIC 24 hr (MEC)” value (Aspergillus spp.) was 0.06 (MEC) and 0.03 (MEC). For the same compound, the “MIC 48 hr (MEC)” value (Aspergillus spp.) was 0.008 (MEC), the MIC 24 hr [2] was 0.5 µg/mL (≈ 0.394 µM) and the MIC 48 hr [2] was 2 µg/mL (≈ 1.57 µM). For the same compound, the “QC Range 24 hr” value (Candida krusei [3]) was 0.12-0.5, the “QC Range 48 hr” value (Candida krusei [3]) was 0.12-0.5 and the “QC Range 24 hr” value [4] was 0.5-2. For the same compound, the “QC Range 48 hr” value [4] was 0.5-4, the “MIC 24 hr” value (E. coli ATCC 25922) was >64 and the “MIC 24 hr” value (S. aureus ATCC 29213 [5]) was >64.
For Gentamicin, the MIC (Enterobacteriaceae [7]; E. cloacae MMX 5981 (ATCC BAA-2468), NDM-1, Lev^R MEM^R CAZ^R Gm^R) was >64 µg/mL, the MIC (Enterobacteriaceae [7]; E. coli MMX 102 (ATCC 25922), QC) was 1 µg/mL and the MIC (Enterobacteriaceae [7]; E. coli MMX 5980 (ATCC BAA-2469), NDM-1, Lev^R MEM^R CAZ^R Gm^R) was >64 µg/mL. For the same compound, the MIC (Enterobacteriaceae [7]; E. coli MMX 8423, ESBL, Lev^R CAZ^R Gm^R) was 64 µg/mL, the MIC (Enterobacteriaceae [7]; E. coli MMX 8424, ESBL, CAZ^R) was 0.25 µg/mL and the MIC (Enterobacteriaceae [7]; E. coli MMX 8425, ESBL, Lev^R CAZ^R Gm^R) was >64 µg/mL. For the same compound, the MIC (Enterobacteriaceae [7]; K. pneumoniae MMX 4622, KPC-2, MEM^R CAZ^R) was 0.25 µg/mL, the MIC (Enterobacteriaceae [7]; K. pneumoniae MMX 4623, KPC-2, MEM^R CAZ^R Gm^R) was 64 µg/mL and the MIC (Enterobacteriaceae [7]; K. pneumoniae MMX 4653, KPC-3, Lev^R MEM^R CAZ^R) was 1 µg/mL. For the same compound, the MIC (Enterobacteriaceae [7]; K. pneumoniae MMX 4683, KPC-2, Lev^R MEM^R CAZ^R) was 1 µg/mL, the MIC (Enterobacteriaceae [7]; K. pneumoniae MMX 4684, ESBL, MEM^R) was 0.25 µg/mL and the MIC (Enterobacteriaceae [7]; K. pneumoniae MMX 4685, ESBL, Lev^R MEM^R CAZ^R) was 1 µg/mL. For the same compound, the MIC (Enterobacteriaceae [7]; K. pneumoniae MMX 4694, KPC-3, Lev^R MEM^R CAZ^R) was 8 µg/mL, the MIC (Enterobacteriaceae [7]; K. pneumoniae MMX 5979, NDM-1, Lev^R MEM^R CAZ^R Gm^R) was >64 µg/mL and the MIC ([8]; A. baumannii MMX 2592, MDR, Lev^R Cip^R MEM^R CAZ^R Gm^R) was >64 µg/mL. The MIC ([8]; A. baumannii MMX 2593, MDR, Lev^R Cip^R MEM^R CAZ^R Gm^R) was >64 µg/mL, the MIC ([8]; A. baumannii MMX 3372, MDR, Cip^R MEM^1 CAZ^1) was 0.5 µg/mL and the MIC ([8]; A. baumannii MMX 3373, Sensitive) was 0.12 µg/mL. It also gave an MIC ([8]; A. baumannii MMX 4651 (NCTC 13304), MDR: OXA-27, Lev^R Cip^R MEM^R CAZ^R Gm^1) of 8 µg/mL, an MIC ([8]; P. aeruginosa MMX 103 (ATCC 27853), QC) of 1 µg/mL and an MIC ([8]; P. aeruginosa MMX 1381, MDR, Lev^R Cip^R MEM^R CAZ^R) of 8 µg/mL. For the same compound, the MIC ([8]; P. aeruginosa MMX 2562, MDR, Lev^R Cip^R MEM^R CAZ^R) was 8 µg/mL, the MIC ([8]; P. aeruginosa MMX 3991, MDR, Lev^R Cip^R MEM^R CAZ^R) was 4 µg/mL and the MIC ([8]; P. aeruginosa MMX 4654, IMP-7, Lev^R Cip^R MEM^R CAZ^R) was >64 µg/mL. It also gave an MIC ([8]; P. aeruginosa MMX 4697, VIM-2, Lev^R Cip^R MEM^R CAZ^R) of 4 µg/mL, an MIC (S. aureus [9]; S. aureus MMX 101 (ATCC 29213), QC, MSSA) of 0.12 µg/mL and an MIC (S. aureus [9]; S. aureus MMX 5373, MRSA, Lev^R Cip^R CC^R Ery^R Ox^R) of 0.25 µg/mL. The MIC (S. aureus [9]; S. aureus MMX 6311, MRSA, Lev^R Cip^R CC^R Ery^R Ox^R) was 0.25 µg/mL, the MIC (S. aureus [9]; S. aureus MMX 9203, MRSA, Lev^R Cip^R Ery^R Ox^R) was 0.12 µg/mL and the MIC (S. aureus [9]; S. aureus MMX 9204, MRSA, Lev^R Cip^R Ery^R Ox^R) was 0.25 µg/mL. The MIC (S. aureus [9]; S. aureus MMX 9205, MRSA, Lev^R Cip^R CC^R Ery^R Ox^R) was 0.25 µg/mL, the MIC (Enterococcus spp.; E. faecalis MMX 8960, VRE) was >64 µg/mL and the MIC (Enterococcus spp.; E. faecalis MMX 8961, VRE) was 8 µg/mL. For the same compound, the MIC (Enterococcus spp.; E. faecalis MMX 8962, VRE) was >64 µg/mL, the MIC (Enterococcus spp.; E. faecium MMX 485, VRE vanA) was >64 µg/mL and the MIC (Enterococcus spp.; E. faecium MMX 752, VRE vanA) was >64 µg/mL. For the same compound, the “MIC, CLSI QC range” value (Enterobacteriaceae [10]) was “(0.25-1) μg/mL”, the “MIC, CLSI QC range” value [11] was “(0.5-2) μg/mL” and the “CLSI QC range of MIC” value (S. aureus [12]) was “(0.12-1) μg/mL”.

— patent US20230124862A1, “BISMUTH THIOL COMPOUNDS AND COMPOSITIONS AND METHODS OF TREATING MICROBIAL CO-INFECTIONS” (Microbion Corporation, priority 2020, published 2023)
